Measured values taken from patent US9187728B2, “Method for producing hematopoietic stem cells” (Nissan Chemical Industries, Ltd., priority 2010, dated 2015).

Key:
CD34+CD38- cells = test: Expansion of CD34+CD38- cells using human cord blood-derived CD34+ cells (liquid culture, flow cytometry); format: cell-based; conditions: for expansion activity on hematopoietic stem cells: general statement, compared with the other specific compounds; for expansion activity on CD34+CD38- cells: 7 days
Description: (§1) Human cord blood-derived CD34^+ cells were purchased from Lonza and plated on a 24-well plate (Corning) (10000 cells/1 mL/well). As the culture medium, StemSpan SFEM (StemCell Technologies) containing 100 ng/mL SCF (Wako Pure Chemical Industries) and 20 ng/mL TPO (PeproTech) in terms of final concentration was used, and garcinol (COSMO BIO) dissolved in dimethyl sulfoxide was added to the medium in an amount of 0.1% (v/v) to a final concentration of 5 or 10 μM. Similarly, isogarcinol (Reference Synthetic Example 1) dissolved in dimethyl sulfoxide was added to the medium in an amount of 0.1% (v/v) to a final concentration of 2 or 5 μM. As a negative control, the medium containing 0.1% (v/v) dimethyl sulfoxide was used.
After the cells were incubated in liquid culture at 37° C. for 7 days in a CO2 incubator (5% CO2), the number of viable cells was counted by trypan blue assay. The number of CD34^+CD38^− cells was calculated as follows. After the incubation, the cells in the liquid culture was stained with a CD34 antibody (APC, Becton, Dickinson and Company) and a CD38 antibody (P E, Becton, Dickinson and Company), then washed with PBS(−) containing 2% (v/v) FBS and stained with propidium iodide (Sigma-Aldrich Japan) added to a final concentration of 5 μg/mL. The stained cells were analyzed with a BD FACSCANTO™ II flow cytometer (Becton, Dickinson and Company) to determined the proportions of CD34^+ cells and CD34^+CD38^− cells, which was multiplied by the number of viable cells to calculate the numbers of CD34^+ cells and CD34^+CD38^− cells.
Human cord blood-derived CD34^+ cells purchased from the same supplier as in Assay Example 1 were plated on a 24-well plate (Corning) (10000 cells/1 mL/well). As the culture medium, StemSpan SFEM (StemCell Technologies) containing 100 ng/mL SCF (Wako Pure Chemical Industries) and 20 ng/mL TPO (PeproTech) in terms of final concentration was used, and O-monomethylisogarcinol (Reference Synthetic Example 2) dissolved in dimethyl sulfoxide was added to the medium to a final concentration of 1 or 2 μM.
(§2) After the cells were incubated in liquid culture at 37° C. for 7 days in a CO2 incubator (5% CO2), the number of viable cells was counted by trypan blue assay. The number of CD34^+CD38^− cells was calculated in the same manner as in Assay Example 1.
Human cord blood-derived CD34^+ cells purchased from the same supplier as in Assay Example 1 were plated on a 24-well plate (Corning) (10000 cells/1 mL/well). […]

HPP-CFC colonies = test: Expansion of HPP-CFU using human cord blood-derived CD34+ cells (blood cell colony forming assay); format: cell-based; conditions: then 500 cells/dish MethoCult GF H4435, 12 days, None = 19
Description: The effects of garcinol and isogarcinol as compounds of the present invention on hematopoietic progenitor cells were measured by blood cell colony forming assay. The liquid cell cultures obtained in Assay Example 1 were poured into 3.5-cm Petri dishes with MethoCult GF H4435 culture medium (StemCell Technologies) at 500 cells/dish and incubated in a CO2 incubator (5% CO2, 37° C.) for 12 days. The number of HPP-CFC colonies in each plate was counted under a microscope routinely. The assay was carried out at least in duplicate, and the numbers of HPP-CFC colonies were averaged.

[1] = tested on: SCID-repopulating cells (SRC); test: Transplantation of cell culture into immunodeficient (NOD/SCID) mice (SRC assay); format: in vivo, human; conditions: CD34+ cells cultured with 10 μM, transplanted into irradiated NOD/SCID mice, 8 weeks; vs cells cultured without compound (FIG. 5)
Description: Human cord blood-derived CD34^+ cells cultured in the presence of 10 μM garcinol (COSMO BIO) in terms of final concentration or in the absence of garcinol (i.e., in a culture medium containing 0.1% (v/v) dimethyl sulfoxide) in the same manner as in Assay Example 1 were transplanted into at least five 7- to 8-week-old NOD/SCID mice by tail vein injection at 4 to 5×10^4 cells/mouse in terms of the initial number of CD34^+ cells after a sublethal dose of irradiation (2.5 Gy). Eight weeks after the transplantation, the mice were killed, and the bone marrow cells were collected from both thighbones. Subsequently, the bone marrow cells were stained with a human CD45 antibody (APC, Becton, Dickinson and Company), then washed with PBS(−) containing 2%(v/v) FBS and stained with propidium iodide (Sigma-Aldrich Japan) added to a final concentration of 5 μg/mL. The stained cells were analyzed by flow cytometry to determined the proportion of human CD45^+ cells in the bone marrow cells.

CD34+ cells = test: Expansion of CD34+ cells using human cord blood-derived CD34+ cells (liquid culture, flow cytometry); format: cell-based; conditions: Assay Example 2; 1 or 2 μM; 100 ng/mL SCF + 20 ng/mL TPO; 7 days
Description: as §1, with “As a negative control, the medium containing 0.1% (v/v) dimethyl sulfoxide was used.” left out
After the cells were incubated in liquid culture at 37° C. for 7 days in a CO2 incubator (5% CO2), the number of viable cells was counted by trypan blue assay. The number of CD34^+CD38^− cells was calculated as follows. […] The stained cells were analyzed with a BD FACSCANTO™ II flow cytometer (Becton, Dickinson and Company) to determined the proportions of CD34^+ cells and CD34^+CD38^− cells, which was multiplied by the number of viable cells to calculate the numbers of CD34^+ cells and CD34^+CD38^− cells. […]
as §2

| SMILES | expansion activity on hematopoietic stem cells (CD34+CD38- cells) | Number of HPP-CFC colonies (HPP-CFC colonies; 5 μM in 7-day liquid culture (SCF+TPO)) | SRC expanding effect (proportion of human CD45+ cells in bone marrow) [1] | expansion activity on CD34+CD38- cells (CD34+CD38- cells; Assay Example 3, 10 μM, in the presence of SCF, SCF and TPO, or SCF, TPO and FL, compared with absence of the compound (FIG. 4)) | Number of HPP-CFC colonies (HPP-CFC colonies; 10 μM in 7-day liquid culture (SCF+TPO)) | expansion activity on CD34+ cells (CD34+ cells) | expansion activity on CD34+CD38- cells (CD34+CD38- cells; Assay Example 2, 1 or 2 μM, 100 ng/mL SCF + 20 ng/mL TPO, vs absence of compound (FIG. 3)) |
| --- | --- | --- | --- | --- | --- | --- | --- |
| CC(C)=CC[C@H]1C[C@@]23C[C@@H](CC=C(C)C)C(C)(C)[C@@](CC=C(C)C)(C(=O)C(C(=O)c4ccc(O)c(O)c4)=C2OC1(C)C)C3=O [isogarcinol, Isogarcinol] | especially strong expansion activity | 42 |  |  |  |  |  |
| C=C(C)[C@@H](CC=C(C)C)C[C@@]12C[C@@H](CC=C(C)C)C(C)(C)[C@@](CC=C(C)C)(C(=O)C(C(=O)c3ccc(O)c(O)c3)=C1O)C2=O [garcinol, Garcinol] | especially strong expansion activity |  | excellent SRC expanding effect | higher expansion activity | 35 |  |  |
| COc1ccc(C(=O)C2=C3OC(C)(C)[C@@H](CC=C(C)C)C[C@@]34C[C@@H](CC=C(C)C)C(C)(C)[C@@](CC=C(C)C)(C2=O)C4=O)cc1O [O-monomethylisogarcinol, O-Monomethylisogarcinol] |  |  |  |  |  | excellent expansion activity | excellent expansion activity |
